Measurements published in patent publication US10676468B2, “N-(3-heteroarylaryl)-4-arylarylcarboxamides and analogs as hedgehog pathway inhibitors and use thereof” (IMPACT Therapeutics, Inc., priority 2012, dated 2020).

What was measured:
Type in all cases: cell-based, mouse
[1] = system: Hedgehog Signaling Pathway; test: Gli-Luc reporter gene cell assay in C3H10T1/2/Gli-Luc cells stimulated with Shh; details: Mus musculus, C3H 10T1/2, 24 h, 30 nM Shh, luciferase activity (RLU), read-out: IC50 values of compounds that inhibit Hh pathway
Summary of the method: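 C3H10T1/2 cells stably carrying Gli-responsive luciferase were seeded overnight, then treated 24 h at 37 °C with compound (7-point dilution series, DMSO control) plus Shh (30 nM in added medium). Lysate luciferase RLU fitted against log concentration to derive IC50.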

[2] = system: Hedgehog Signaling Pathway; test: SAG-induced differentiation of C3H10T1/2 cells into osteoblastic cells, intracellular alkaline phosphatase activity; details: Mus musculus, C3H 10T1/2, 120 h, 1 μM SAG, 5 days, alkaline phosphatase activity (OD405), read-out: IC50 values of compounds that inhibit Hh pathway
Summary of the method: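 Mouse C3H10T1/2 cells were induced with SAG and exposed to compound (10 μM to 1 nM) for 5 days at 37 °C. Cells were lysed in 0.2% Triton, and alkaline phosphatase activity was read as OD405 over 30 min at 37 °C in pH 9.8 substrate buffer. IC50 came from a non-linear fit of background-subtracted OD405 against log concentration.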

[3] = system: Hedgehog Signaling Pathway; test: SHH-induced differentiation of C3H10T1/2 cells into osteoblastic cells, intracellular alkaline phosphatase activity; details: Mus musculus, C3H 10T1/2, 120 h, 10 nM SHH-N, 5 days, alkaline phosphatase activity (OD405), read-out: IC50 values of compounds that inhibit Hh pathway
Summary of the method: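 Mouse C3H10T1/2 cells were induced with 10 nM SHH-N alongside test compound (10 μM–10 nM) for 5 days at 37 °C. Cells were lysed in 0.2% Triton, and alkaline phosphatase activity was read at OD405 over 30 min at 37 °C with the background reading subtracted. IC50 came from a nonlinear fit against log concentration.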

Structure (SMILES)	IC50 [1]	IC50 [2]	IC50 [3]
Cc1c(C(=O)Nc2ccc(Cl)c(-c3ncc(-c4ccsc4)[nH]3)c2)ccc(N2C[C@@H](C)N(C)[C@@H](C)C2)c1F [Example 141, N-(3-(5-(thiophen-3-yl)-1H-imidazol-2-yl)-4-chlorophenyl)-2-methyl-3-fluoro-4-((3S,5R)-3,4,5-trimethylpiperazin-1-yl)benzamide]	0.35 nM	9.4 nM	0.24 nM
Cc1cc(N2C[C@@H](C)N(C)[C@@H](C)C2)ccc1C(=O)Nc1ccc(Cl)c(-c2nc(C)c(-c3cccs3)[nH]2)c1 [Example 143, N-(3-(4-methyl-5-(thiophen-2-yl)-1H-imidazol-2-yl)-4-chlorophenyl)-2-methyl-4-((3S,5R)-3,4,5-trimethylpiperazin-1-yl)benzamide]	2.3 nM	108 nM	15 nM
C[C@@H]1CN(c2ccc(C(=O)Nc3ccc(Cl)c(-c4ncc(-c5ccco5)[nH]4)c3)c(Cl)c2)C[C@H](C)N1C [Example 144, N-(3-(5-(furan-2-yl)-1H-imidazol-2-yl)-4-chlorophenyl)-2-chloro-4-((3S,5R)-3,4,5-trimethylpiperazin-1-yl)benzamide]	0.15 nM	17 nM	0.82 nM
Cc1cc(N2C[C@@H](C)N(C)[C@@H](C)C2)ccc1C(=O)Nc1ccc(Cl)c(-c2ncc(-c3ccco3)[nH]2)c1 [Example 145, N-(3-(5-(furan-2-yl)-1H-imidazol-2-yl)-4-chlorophenyl)-2-methyl-4-((3S,5R)-3,4,5-trimethylpiperazin-1-yl)benzamide]	0.38 nM	3.3 nM	0.93 nM
C[C@@H]1CN(c2ccc(C(=O)Nc3ccc(Cl)c(-c4ncc(-c5ccco5)[nH]4)c3)c(C(F)(F)F)c2)C[C@H](C)N1C [Example 146, N-(3-(5-(furan-2-yl)-1H-imidazol-2-yl)-4-chlorophenyl)-2-(trifluoro-methyl)-4-((3S,5R)-3,4,5-trimethylpiperazin-1-yl)benzamide]	0.39 nM	25 nM	0.49 nM
Cc1c(C(=O)Nc2ccc(Cl)c(-c3ncc(-c4ccco4)[nH]3)c2)ccc(N2C[C@@H](C)N(C)[C@@H](C)C2)c1F [Example 148, N-(3-(5-(furan-2-yl)-1H-imidazol-2-yl)-4-chlorophenyl)-2-methyl-3-fluoro-4-((3S,5R)-3,4,5-trimethylpiperazin-1-yl)benzamide]	0.26 nM	15 nM	0.33 nM
C[C@@H]1CN(c2cc(Cl)c(C(=O)Nc3ccc(Cl)c(-c4ncc(-c5ccco5)[nH]4)c3)cc2F)C[C@H](C)N1C [Example 149, N-(3-(5-(furan-2-yl)-1H-imidazol-2-yl)-4-chlorophenyl)-2-chloro-5-fluoro-4-((3S,5R)-3,4,5-trimethylpiperazin-1-yl)benzamide]	0.28 nM	15 nM	0.27 nM
C[C@@H]1CN(c2ccc(C(=O)Nc3ccc(Cl)c(-c4ncc(-c5nccs5)[nH]4)c3)c(Cl)c2)C[C@H](C)N1C [Example 153, N-(3-(5-(thiazol-2-yl)-1H-imidazol-2-yl)-4-chlorophenyl)-2-chloro-4-((3S,5R)-3,4,5-trimethylpiperazin-1-yl)benzamide]	8.7 nM	280 nM	34 nM
Cc1cc(N2C[C@@H](C)N(C)[C@@H](C)C2)ccc1C(=O)Nc1ccc(Cl)c(-c2ncc(-c3nccs3)[nH]2)c1 [Example 154, N-(3-(5-(thiazol-2-yl)-1H-imidazol-2-yl)-4-chlorophenyl)-2-methyl-4-((3S,5R)-3,4,5-trimethylpiperazin-1-yl)benzamide]	6.7 nM	178 nM	22 nM
C[C@@H]1CN(c2ccc(C(=O)Nc3ccc(Cl)c(-c4ncc(-c5cccs5)[nH]4)c3)c(C(F)(F)F)c2)C[C@H](C)N1C [Example 155, N-(3-(5-(thiophen-2-yl)-1H-imidazol-2-yl)-4-chlorophenyl)-2-(trifluoro-methyl)-4-((3S,5R)-3,4,5-trimethylpiperazin-1-yl)benzamide]	0.22 nM	13 nM	0.11 nM
